Experimental data: paper PMC5653355, “Identification of two immortalized cell lines, ECV304 and bEnd3, for in vitro permeability studies of blood-brain barrier” (PLoS ONE, 2017)

Assays:
[1] = Permeability (transport study) across bEnd3 monoculture model; conditions: mouse
Protocol: (§2) For the generation of mono-culture models, ECV304 or bEnd3 cells were seeded on the upper surface of the membrane in Polyester Transwell inserts (0.4 μM pore size, 6.5 mm diameter, 24 well, Costar, Kennebunk, ME, USA) at a density of 5 × 10^4 and 8 × 10^4/cm^2, respectively. […] The culture medium (0.25 ml in the apical compartment and 1 ml in the basolateral compartment to avoid hydrostatic pressure) was replenished every day.
(§3) On day 5~7 after seeding cells, the TEER across cell layers was measured before initiating the transport study by replacing the medium in the apical compartment with tested compounds dissolved in HBSS. […] At indicated time points of 15, 30, 45 and 60 min, the inserts were transferred into new wells containing fresh HBSS to maintain sink conditions. […] Other compounds were analyzed by liquid chromatography tandem mass spectrometer (LC-MS/MS).
(§4) The cleared volume was determined by dividing the compound amount in basolateral compartment by the compound concentration in apical compartment. The slope of the cumulative clearance versus time was calculated by linear regression analysis and denoted as permeability coefficient (PEall) × surface area of the membrane insert (S, 0.33 cm^2). The PEblank of blank inserts was included to calculate the PEcell for cell layers themselves using the following equation: 1/PEcellS = 1/PEallS—1/PEblankS.

[2] = Permeability (transport study) across ECV304 monoculture model; conditions: human
Protocol: as §2, §3, §4

[3] = tested on: bEnd3 cell layers; test: Permeability (transport study) across bEnd3 monoculture model
Protocol: as §2, §3, §4

[4] = tested on: ECV304 cell layers; test: Permeability (transport study) across ECV304 monoculture model
Protocol: as §2, §3, §4

[5] = tested on: ECV304 co-cultured with rat glioma C6 cells; test: Permeability to Lucifer yellow in ECV304 co-culture model with C6 cells; format: in vitro ADME, human; conditions: Lucifer yellow 50 μM
Protocol: (§1) For the generation of mono-culture models, ECV304 or bEnd3 cells were seeded on the upper surface of the membrane in Polyester Transwell inserts ([…] pore size, 6.5 mm diameter, 24 well, Costar, Kennebunk, ME, USA) at a density of 5 × 10^4 and 8 × 10^4/cm^2, respectively. For the generation of co-culture models, C6 cells were seeded on the lower surface of the membrane at a density of 5 × 10^4/cm^2 and incubated for 2 h to allow cell attachment before the seeding of ECV304 or bEnd3 cells.

[6] = tested on: bEnd3 co-cultured with rat glioma C6 cells; test: Permeability to Lucifer yellow in bEnd3 co-culture model with C6 cells; format: in vitro ADME, mouse; conditions: Lucifer yellow 50 μM
Protocol: as §1

[7] = tested on: ECV304 cell layers; conditions: cited from earlier work

Row | Molecule | Papp at 60 min [1] | Papp at 60 min [2] | other results
1 | C[C@H]1O[C@@H](O[C@H]2[C@@H](O)C[C@H](O[C@H]3[C@@H](O)C[C@H](O[C@H]4CC[C@@]5(C)[C@H](CC[C@@H]6[C@@H]5C[C@@H](O)[C@]5(C)[C@@H](C7=CC(=O)OC7)CC[C@]65O)C4)O[C@@H]3C)O[C@@H]2C)C[C@H](O)[C@@H]1O [Digoxin, digoxin] | 6.24 ± 0.27 ×10⁻⁶ cm/s | 3.29 ± 0.16 ×10⁻⁶ cm/s | –
2 | C=C[C@H]1C[N@@]2CC[C@H]1C[C@@H]2[C@@H](O)c1ccnc2ccc(OC)cc12 [Quinidine, quinidine] | 26.8 ± 0.68 ×10⁻⁶ cm/s | 24.5 ± 1.61 ×10⁻⁶ cm/s | –
3 | CC(C)NCC(O)COc1cccc2ccccc12 (stereo not drawn) [Propranolol, propranolol] | 29.7 ± 1.44 ×10⁻⁶ cm/s | 28.4 ± 1.25 ×10⁻⁶ cm/s | permeability ratio of transcellular marker propranolol to paracellular marker Lucifer yellow ([3]; bEnd3 cells, monoculture): 1.2; permeability ratio of transcellular marker propranolol to paracellular marker Lucifer yellow ([4]; ECV304 cells, monoculture): 2.5
4 | COC(=O)c1ccccc1-c1c2ccc(=N)cc-2oc2cc(N)ccc12 [R123, Rhodamine 123] | 22.3 ± 2.8 ×10⁻⁶ cm/s | 12.4 ± 0.91 ×10⁻⁶ cm/s | –
5 | Lucifer yellow | – | – | permeability to Lucifer yellow ([3]; bEnd3 monoculture model, Lucifer yellow 50 μM, day 5~7 after seeding, mean ± SD, n = 3): 23.68 ± 1.71 × 10^−6 cm/s; increase of permeability to Lucifer yellow, co-culture with C6 cells versus monoculture [5]: 2.2 fold; increase of permeability to Lucifer yellow, co-culture with C6 cells versus monoculture [6]: 2 fold; permeability to Lucifer yellow ([4]; ECV304 monoculture model, Lucifer yellow 50 μM, day 5~7 after seeding, mean ± SD, n = 3): 11.17 ± 0.87 × 10^−6 cm/s; permeability of Lucifer yellow in ECV304 monolayer, published before [7]: 10.4 ×10⁻⁶ cm/s
